# Reference: PMC6429159, “Evolution and Biological Evaluation of Matrinic Derivatives with Amantadine Fragments As New Anti-Influenza Virus Agents” (Molecules, 2019)
# Where a name gives a salt, the structure may show the parent alone. Read-outs that look alike come from different tables or passages of the source.
# Legend:
# [1] = tested on: MDCK cells; conditions: lead 1, value of previous study; cited from earlier work
# [2] = tested on: influenza virus A/hanfang/359/95 (H3N2); assay: organism not typed; format: cell-based; conditions: 50% virus-inhibitory concentration after 40 hr at 37 °C, MDCK cells; – = no anti-H3N2 activity at the maximum non-toxic concentration
# [3] = tested on: influenza virus A/Fort Monmouth/1/1947 (H1N1); assay: organism not typed; format: cell-based; conditions: MDCK cells, CPE
# [4] = tested on: MDCK cells; assay: Cytotoxicity assay; format: cell-based; conditions: 50% cytotoxic concentration, 48 hr
# Description: A three-fold dilution compound was added to cell monolayer, and the cells continued to be cultivated for 48 hr, and then the CPE was recorded. The TC50 value of each compound was calculated by the methods of Reed & Muench.
# [5] = tested on: H3N2 virus non-structural protein 1 (NS1); assay: Anti-H3N2 activity at the protein level, NS1 Western blot; format: cell-based, Influenza A virus; conditions: 40 μM, MDCK cells, MOI 0.003, 24 hr
# [6] = Stability assay in whole blood; format: in vitro ADME, SD rats; conditions: 37 °C; for stability in whole blood (in words): in vitro
# Description: The results hinted that 9f owned a good PK stability profile in blood, and it was chosen for the next investigation.
# The fresh bloods were collected on the day of experiment from SD rats, and pre-warmed in a water bath at 37 °C. A concentration of 10 mM tested compound or enalapril stock solutions were prepared in DMSO, and then diluted with 45% MeOH/H2O to achieve […] dosing solutions. […] At the end of incubation, for each sample, […] water and […] of stop solution (200 ng·mL^−1 tolbutamide plus 20 ng·mL^−1 buspirone in acetonitrile) were immediately added to precipitate the protein, and centrifuged at 4000 rpm for 20 min. An aliquot of supernatant ([…]) was then extracted, mixed with […] H2O, and then shaken at 800 rpm for about 10 min before being submitted for a liquid chromatography-tandem mass […] (LC-MS/MS) analysis. The experiment was repeated twice.
# Figure 3 The stability assessments of key compounds 9f and 9j in whole blood. […]
# [7] = tested on: Kunming mice; conditions: for weight loss and behaviour: oral single dose 125, 250, 500 mg·kg^–1, seven days, compared to control; for median lethal dose (LD50): oral single dose, Kunming mice, monitored seven days
# Description: The acute toxicity tests of the two key compounds 9f and 9j were performed in Kunming mice. Each compound was given orally in a single-dosing experiment at 125, 250, and 500 mg·kg^–1, respectively. Then, the mice were closely monitored for seven days.
# Female Kunming mice with weights of 20.0 (±1.0 g) were fed with regular rodent chow, and housed in an air-conditioned room. The mice were randomly divided into different groups with 10 mice each. Each compound was given orally in a single-dosing experiment at 125, 250, or 500 mg·kg^−1, respectively. The mice were closely monitored for seven days. Body weight, as well as survival, was monitored.
# [8] = tested on: IAV M2; format: cell-based, Influenza A virus
SMILES,TC50 [1] [µM],IC50 [2] [µM],IC50 [3] [µM],TC50 [4] [µM],H3N2 virus NS1 level [5],remaining rate of protype in whole blood ([6]; 30 min) [%],remaining rate of protype in whole blood ([6]; 120 min) [%],stability in whole blood (in words) [6],weight loss and behaviour [7],median lethal dose (LD50) [7],M2 level [8],remaining rate of protype in whole blood ([6]; 60 min) [%]
"CCCCC1C2CCCN3CCCC(CN1Cc1ccc(C(=O)O)cc1)C23 (centres unmarked) [Compound 1, 12N-p-carboxybenzyl matrinic butane]",>540.5,,,,,,,,,,,
"O=C(CC1CC2CCC1C2)OCCCC[C@@H]1[C@H]2CCCN3CCC[C@@H](CN1S(=O)(=O)c1cccc(C(F)(F)F)c1)[C@@H]23 (some centres unmarked) [Compound 9j, 12N-m-Trifluoromethlybenzenesulfonyl matrinic butyl-2’-norbornane acetate hydrochloride]",,10.2 ± 1.8,22.6 ± 1.3,110.3 ± 18.5,significantly reduce,47.7,1.3,poor stability,neither significant weight loss nor behavioral abnormality,higher than 500 mg·kg^–1,,
"O=C(OCCCC[C@@H]1[C@H]2CCCN3CCC[C@@H](CN1S(=O)(=O)c1cccc(C(F)(F)F)c1)[C@@H]23)C12CC3CC(CC(Br)(C3)C1)C2 [Compound 9f, 12N-m-Trifluoromethlybenzenesulfonylmatrinicbutyl-3’-bromoadamantane-1’-carboxylate hydrochloride]",,7.2 ± 1.1,23.4 ± 1.5,75.7 ± 14.2,significantly reduce,,97.9,high stability profile,neither significant weight loss nor behavioral abnormality,higher than 500 mg·kg^–1,significantly reduce,100
